The values that follow come from patent US12686866B2, “Methods of treating cancer by suppression of FAMIN expression” (Cambridge Enterprise Limited, priority 2018, dated 2026).

Common to all, as to type: biochemical
The target of test [1] is T1, recombinant FAMIN (Homo sapiens, UniProt Q8IV20).
T1 sequence (Q8IV20 1-430): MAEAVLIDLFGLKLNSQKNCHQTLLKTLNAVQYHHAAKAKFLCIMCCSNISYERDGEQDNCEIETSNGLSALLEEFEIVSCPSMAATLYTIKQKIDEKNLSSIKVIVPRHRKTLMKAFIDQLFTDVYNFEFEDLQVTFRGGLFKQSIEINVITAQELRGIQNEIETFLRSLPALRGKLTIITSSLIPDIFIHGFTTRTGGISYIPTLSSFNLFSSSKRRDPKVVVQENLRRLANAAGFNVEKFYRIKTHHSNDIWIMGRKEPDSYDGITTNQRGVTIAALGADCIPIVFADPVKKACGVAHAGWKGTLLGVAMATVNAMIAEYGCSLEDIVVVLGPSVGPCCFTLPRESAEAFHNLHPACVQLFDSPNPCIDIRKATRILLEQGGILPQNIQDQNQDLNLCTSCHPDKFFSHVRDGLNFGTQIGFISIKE
As to the kind of experiment: FAMIN purine nucleoside phosphorylase activity: hypoxanthine and R-1-P from inosine with recombinant FAMIN. The conditions noted are these: 10 μg recombinant FAMIN, 10 μM inosine in PBS, 1 h at 37° C.; FIG. 11D, E. The text has this: (§1) FIGS. 11B and 11C show levels of adenine and ribose-1-phosphate (R-1-P) in the reaction described in FIG. 11A.

In test [2] the target is T1, recombinant FAMIN. As to the kind of experiment: FAMIN adenosine phosphorylase activity: adenine and R-1-P from adenosine with recombinant FAMIN. The conditions noted are these: 10 μg recombinant FAMIN, 10 μM adenosine in PBS, 1 h at 37° C., FIG. 11B.
Excerpt: as §1

Test [3] concerns the target T1, recombinant FAMIN. As to the kind of experiment: FAMIN adenosine deaminase activity: inosine generated from adenosine by recombinant FAMIN. To be noted: 10 μg recombinant FAMIN, 10 μM adenosine in PBS, 1 h at 37° C.; FIG. 11A.
Excerpt: as §1

In the case of `Nc1nc2c(nc(N)n2[C@@H]2O[C@H](CO)[C@@H](O)[C@H]2O)c(=O)[nH]1` [8-aminoguanosine], the “effect on FAMIN's purine nucleoside phosphorylase activity (hypoxanthine and R-1-P levels)” value on recombinant FAMIN [1] is given as “active on FAMIN's purine nucleoside phosphorylase activity”. The “effect on FAMIN's adenosine phosphorylase activity (adenine and R-1-P levels)” value on recombinant FAMIN [2] is reported as “leaving FAMIN's adenosine phosphorylase activity intact”.

As for `CCCCCC[C@@H]([C@@H](C)O)n1cnc2c(N)ncnc21` (racemic) [EHNA, erythro-9-(2-hydroxy-3-nonyl) adenine], the “effect on FAMIN's adenosine deaminase activity (generation of inosine from adenosine)” value at recombinant FAMIN [3] was “inhibit FAMIN's adenosine deaminase activity”.
